Legend:
Assay in all cases: relative viability (nuclei count vs DMSO), 5 days (fraction); higher = more cells survive
TGX 221 + Alpelisib = compound: CC1=CN2C(=O)C=C(N=C2C(=C1)C(C)NC3=CC=CC=C3)N4CCOCC4 [TGX 221] + Cc1nc(NC(=O)N2CCC[C@H]2C(N)=O)sc1-c1ccnc(C(C)(C)C(F)(F)F)c1 [Alpelisib] (partner 2 µM)
Procedure, shortened: (§1)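 Cells from lung cancer lines were seeded into 1536-well plates and, one day later, dosed by pin tool. Treatments were either a single drug or a fixed dose of an anchor drug with five library-drug doses (not always all listed) in √10 steps. After 5 days, nuclei were stained in a one-step fixation (final 0.05% Triton X-100, 1% formaldehyde, 1 ug/ml Hoechst) and counted on 4× images, and relative viability is the treated-to-vehicle nuclei ratio, as the median of duplicate plates.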

TGX 221 + Trametinib = compound: CC1=CN2C(=O)C=C(N=C2C(=C1)C(C)NC3=CC=CC=C3)N4CCOCC4 [TGX 221] + CC(=O)Nc1cccc(-n2c(=O)n(C3CC3)c(=O)c3c(Nc4ccc(I)cc4F)n(C)c(=O)c(C)c32)c1 [Trametinib] (partner 0.02 µM)
Procedure, shortened: as §1

[1] = compound: C1=CC=C(C(=C1)C2=CC=C(C=C2)C3=CSC4=C3C(=C(C(=O)N4)C#N)O)O + CC(=O)c1c(C)c2cnc(Nc3ccc(N4CCNCC4)cn3)nc2n(C2CCCC2)c1=O [Palbociclib] (partner 0.5 µM)
Procedure, shortened: as §1

[2] = compound: O=C(CCCCCCNC(=O)c1cnc(N(c2ccccc2)c2ccccc2)nc1)NO [Ricolinostat] + CCNC(=O)c1noc(-c2cc(C(C)C)c(O)cc2O)c1-c1ccc(CN2CCOCC2)cc1 [Luminespib] (partner 0.01 µM)
Procedure, shortened: as §1

| Cell Line | relative viability (TGX 221 + Alpelisib; first compound 0.08 µM) | relative viability (TGX 221 + Alpelisib; first compound 0.253 µM) | relative viability (TGX 221 + Alpelisib; first compound 0.8 µM) | relative viability (TGX 221 + Alpelisib; first compound 2.53 µM) | relative viability (TGX 221 + Alpelisib; first compound 8 µM) | relative viability (TGX 221 + Trametinib; first compound 0.08 µM) | relative viability (TGX 221 + Trametinib; first compound 0.253 µM) | relative viability (TGX 221 + Trametinib; first compound 0.8 µM) | relative viability (TGX 221 + Trametinib; first compound 2.53 µM) | relative viability (TGX 221 + Trametinib; first compound 8 µM) | relative viability ([1]; first compound 0.08 µM) | relative viability ([1]; first compound 0.253 µM) | relative viability ([1]; first compound 0.8 µM) | relative viability ([1]; first compound 2.53 µM) | relative viability ([1]; first compound 8 µM) | relative viability ([2]; first compound 0.253 µM) | relative viability ([2]; first compound 0.8 µM) | relative viability ([2]; first compound 2.53 µM) | relative viability ([2]; first compound 0.08 µM) |
| --- | --- | --- | --- | --- | --- | --- | --- | --- | --- | --- | --- | --- | --- | --- | --- | --- | --- | --- | --- |
| NCI-H441 | 0.889 | 0.723 | 0.717 | 0.768 | 0.848 | 0.416 | 0.473 | 0.45 | 0.371 | 0.354 | 0.208 | 0.21 | 0.184 | 0.275 | 0.21 | 0.376 | 0.328 | 0.373 | – |
| NCI-H460 | 0.386 | 0.295 | 0.274 | 0.167 | 0.137 | 0.104 | 0.121 | 0.202 | 0.171 | 0.0976 | 0.15 | 0.149 | 0.15 | 0.101 | 0.158 | 0.0237 | 0.0543 | 0.0362 | 0.0274 |
| NCI-H520 | 0.696 | 0.45 | 0.42 | 0.243 | 0.254 | 0.521 | 0.591 | 0.744 | 0.597 | 0.505 | 0.235 | 0.212 | 0.223 | 0.226 | 0.206 | 0.208 | 0.295 | 0.233 | – |
| NCI-H647 | 0.867 | 0.862 | 0.65 | 0.624 | 0.459 | 0.436 | 0.375 | 0.355 | 0.247 | 0.297 | – | 0.387 | 0.392 | 0.346 | 0.22 | 0.238 | 0.117 | 0.21 | 0.161 |
| NCI-H650 | 1.23 | 1.02 | 1.13 | 0.912 | 0.791 | 0.932 | 0.894 | 0.974 | 0.908 | 0.861 | 0.305 | 0.357 | 0.329 | 0.273 | 0.344 | 0.758 | 0.788 | 0.657 | 0.763 |
| NCI-H661 | 0.45 | 0.52 | 0.201 | 0.559 | 0.516 | 0.584 | 0.544 | 0.569 | 0.591 | 0.495 | 0.426 | 0.419 | 0.392 | 0.394 | 0.391 | 0.886 | 0.881 | 0.685 | 0.743 |
| NCI-H727 | 0.591 | 0.436 | 0.484 | 0.557 | 0.513 | 0.476 | 0.362 | 0.409 | 0.392 | 0.366 | 0.711 | 0.703 | 0.571 | 0.666 | 0.591 | 0.283 | 0.236 | 0.379 | 0.314 |
| NCI-H838 | 0.902 | 0.88 | 0.849 | 0.723 | 0.631 | 0.49 | 0.456 | 0.45 | 0.402 | 0.355 | 0.22 | 0.231 | 0.193 | 0.201 | 0.186 | 0.291 | 0.289 | 0.169 | 0.254 |

From the supplement of paper PMC10307832
